The source of these data is PMC8185074, “Anchor extension: a structure-guided approach to design cyclic peptides targeting enzyme active sites” (Nature Communications, 2021).

For assay [1], the target named is T1, HDAC2 (Homo sapiens, UniProt Q92769).
T1 construct: purchased Reaction Biology Corporation (assay run by the CRO)
The assay is described as follows: Initial HDAC2 IC50 estimate (BPS Biosciences HDAC fluorogenic assay kit). The format is biochemical. As to the method:
Initial IC50 values were estimated using HDAC fluorogenic assay kits from BPS Biosciences (HDAC2, HDAC4, and HDAC6) following the protocol described in the kit. All the measures were performed in duplicates or triplicates. These measurements were done either on full range of concentrations (1:10 dilution from 1 µM to 100 pM) or on two concentrations only (20 nM and 200 nM) as an estimate of the range. […] Source Data are provided as a Source Data file.

Assay [2] concerns the target T1, HDAC2. Nature of the assay: HDAC2 inhibition, full IC50 measurement (Reaction Biology; fluorogenic p53 peptide RHKK(Ac)AMC). The format is biochemical. In a few lines: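 Inhibitory peptides were acoustically dispensed with enzyme, then substrate added; 1 h at 30 °C. Developer stopped reaction; plateau endpoint fluorescence (360/460 nm) gave IC50.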
The mark [3] stands for this setting: Supplementary Dataset 2, read-out: HDAC2 activity (initial activity).
Where [4] appears, read: Supp. Table 4, rough estimates, for promising hits full measurements, read-out: HDAC2 activity (initial values for HDAC2 IC50).
Setting [5] is: HDAC2 activity (initial activity), Supplementary Dataset 2.

SMILES strings stand for the structures. Read-outs that look alike come from different tables or passages of the source. Peptide text beside a SMILES is read from it. Where only a bound is given, the exact number is not on record here.

T1 sequence (Q92769 whole entry): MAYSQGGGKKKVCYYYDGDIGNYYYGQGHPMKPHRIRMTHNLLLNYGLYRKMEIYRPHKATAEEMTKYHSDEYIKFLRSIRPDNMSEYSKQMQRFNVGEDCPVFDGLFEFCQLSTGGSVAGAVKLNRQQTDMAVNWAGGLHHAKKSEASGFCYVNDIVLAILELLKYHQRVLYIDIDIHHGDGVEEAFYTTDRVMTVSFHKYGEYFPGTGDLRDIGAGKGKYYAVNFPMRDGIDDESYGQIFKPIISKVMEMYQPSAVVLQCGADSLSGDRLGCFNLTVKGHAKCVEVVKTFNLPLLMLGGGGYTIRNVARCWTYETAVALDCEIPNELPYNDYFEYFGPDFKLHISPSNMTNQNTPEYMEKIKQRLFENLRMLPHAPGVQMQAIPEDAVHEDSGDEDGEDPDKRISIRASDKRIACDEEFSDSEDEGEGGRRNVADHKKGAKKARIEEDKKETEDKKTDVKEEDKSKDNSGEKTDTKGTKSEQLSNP

Turning to `N=C(N)NCCC[C@H]1NC(=O)[C@H]2CCCN2C(=O)[C@@H](Cc2c[nH]cn2)NC(=O)[C@H](Cc2ccc(O)cc2)NC(=O)[C@H](CCCCCS)NC(=O)[C@H](CCc2ccccc2)NC(=O)[C@@H](CCCCN)NC(=O)[C@H](CC(=O)O)NC(=O)[C@@H]2CCCN2C1=O` [des3.2.2, SHA-Tyr-dHis-dPro-dArg-Pro-Asp-dLys-C27] (HELM PEPTIDE1{D.[dK].[O=C([C@H](CCc1ccccc1)N[*:1])[*:2]].[O=C([C@H](CCCCCS)N[*:1])[*:2]].Y.[dH].[dP].[dR].P}$PEPTIDE1,PEPTIDE1,1:R1-9:R2$$$V2.0), the IC50 on HDAC2 [1] (setting [3]) was 0.058 µM. For the same molecule, the “2-Selectivity: fold potency for HDAC2 over HDAC6” value (“2-Selectivity: fold potency” for short) at HDAC2 [2] is 0.41 fold.
On to `N=C(N)NCCC[C@@H]1NC(=O)[C@@H](CCCNC(=N)N)NC(=O)[C@H]2CCCN2C(=O)[C@@H](Cc2c[nH]cn2)NC(=O)[C@H](Cc2ccc(O)cc2)NC(=O)[C@H](CCCCCS)NC(=O)[C@H](CCc2ccccc2)NC(=O)[C@@H](CCCCN)NC(=O)[C@H](CC(=O)O)NC1=O` [des3.2.0, SHA-Tyr-dHis-dPro-dArg-Arg-Asp-dLys-C27] (HELM PEPTIDE1{D.[dK].[O=C([C@H](CCc1ccccc1)N[*:1])[*:2]].[O=C([C@H](CCCCCS)N[*:1])[*:2]].Y.[dH].[dP].[dR].R}$PEPTIDE1,PEPTIDE1,1:R1-9:R2$$$V2.0), for which the figures for the IC50 on HDAC2 [1] (setting [4]) and at HDAC2 [1] (setting [3]) were 0.028 µM and above 0.01 µM, respectively. In addition, the “2-Selectivity: fold potency” value at HDAC2 [2] worked out at 0.53 fold.
Regarding `N=C(N)NCCC[C@H]1NC(=O)[C@H]2CCCN2C(=O)[C@@H](Cc2c[nH]cn2)NC(=O)[C@H](Cc2ccc(O)cc2)NC(=O)[C@H](CCCCCS)NC(=O)[C@H](CCc2ccccc2)NC(=O)[C@H]2CCCN2C(=O)[C@H](CC(=O)O)NC(=O)[C@@H]2CCCN2C1=O` [des3.2.3, SHA-Tyr-dHis-dPro-dArg-Pro-Asp-dPro-C27] (HELM PEPTIDE1{D.[dP].[O=C([C@H](CCc1ccccc1)N[*:1])[*:2]].[O=C([C@H](CCCCCS)N[*:1])[*:2]].Y.[dH].[dP].[dR].P}$PEPTIDE1,PEPTIDE1,1:R1-9:R2$$$V2.0), at HDAC2 [1] (setting [5]), the IC50 was 0.092 µM. Also, on HDAC2 [2], the “2-Selectivity: fold potency” value is 0.47 fold.
On to `N=C(N)NCCC[C@@H]1NC(=O)[C@@H](CCCNC(=N)N)NC(=O)[C@H]2CCCN2C(=O)[C@@H](Cc2c[nH]cn2)NC(=O)[C@H](Cc2ccc(O)cc2)NC(=O)[C@H](CCCCCS)NC(=O)[C@H](CCc2ccccc2)NC(=O)[C@H]2CCCN2C(=O)[C@H](CC(=O)O)NC1=O` [des3.2.1, SHA-Tyr-dHis-dPro-dArg-Arg-Asp-dPro-C27] (HELM PEPTIDE1{D.[dP].[O=C([C@H](CCc1ccccc1)N[*:1])[*:2]].[O=C([C@H](CCCCCS)N[*:1])[*:2]].Y.[dH].[dP].[dR].R}$PEPTIDE1,PEPTIDE1,1:R1-9:R2$$$V2.0), for which the IC50 on HDAC2 [1] (HDAC2 activity (initial values for HDAC2 IC50), Supp. Table 4, rough estimates, for promising hits full measurements) is 0.066 µM. For the same molecule, the “2-Selectivity: fold potency” value on HDAC2 [2] stood at 0.44 fold.
Take `C[C@@H]1NC(=O)[C@@H](CCCNC(=N)N)NC(=O)[C@H](CCCCCS)NC(=O)[C@H](CCc2ccccc2)NC(=O)[C@@H](CCCNC(=N)N)NC(=O)[C@@H](Cc2ccccc2)NC(=O)[C@@H](CCC(=O)O)NC(=O)[C@@H](CCCCN)NC(=O)[C@@H]2CCCN2C1=O` [des3.10.0, SHA-dArg-Ala-Pro-dLys-dGlu-dPhe-dArg-C27] (HELM PEPTIDE1{A.P.[dK].[dE].[dF].[dR].[O=C([C@H](CCc1ccccc1)N[*:1])[*:2]].[O=C([C@H](CCCCCS)N[*:1])[*:2]].[dR]}$PEPTIDE1,PEPTIDE1,1:R1-9:R2$$$V2.0): at HDAC2 [1] (setting [5]), the IC50 is 0.01 to 0.1 µM.
Same read-out and setting: the same measure for `N=C(N)NCCC[C@@H]1NC(=O)[C@@H](CCCNC(=N)N)NC(=O)[C@H]2CCCN2C(=O)[C@@H](CC(N)=O)NC(=O)[C@H](Cc2ccc(O)cc2)NC(=O)[C@H](CCCCCS)NC(=O)[C@H](CCc2ccccc2)NC(=O)[C@@H](CCCCN)NC(=O)[C@H](CC(=O)O)NC1=O` [des3.4.0, SHA-Tyr-dAsn-dPro-dArg-Arg-Asp-dLys-C27] (HELM PEPTIDE1{D.[dK].[O=C([C@H](CCc1ccccc1)N[*:1])[*:2]].[O=C([C@H](CCCCCS)N[*:1])[*:2]].Y.[dN].[dP].[dR].R}$PEPTIDE1,PEPTIDE1,1:R1-9:R2$$$V2.0): 0.01 to 0.1 µM.
In the case of `CCCC[C@@H]1NC(=O)[C@H](CCCCCS)NC(=O)[C@H](CCc2ccccc2)NC(=O)[C@H](C)NC(=O)[C@@H]2CCCN2C(=O)[C@@H](CC(=O)O)NC(=O)[C@@H](CO)NC(=O)[C@H](Cc2c[nH]c3ccccc23)NC(=O)[C@@H](CO)NC1=O` [des3.7.0, SHA-Nlu-dSer-Trp-dSer-dAsp-Pro-Ala-C27] (HELM PEPTIDE1{[O=C([C@H](CCCCCS)N[*:1])[*:2]].[Nle].[dS].W.[dS].[dD].P.A.[O=C([C@H](CCc1ccccc1)N[*:1])[*:2]]}$PEPTIDE1,PEPTIDE1,1:R1-9:R2$$$V2.0), the IC50 at HDAC2 [1] (setting [3]) is above 1 µM.
For `C[C@H]1NC(=O)[C@H](CCCCCS)NC(=O)[C@H](CCN)NC(=O)[C@@H](CC(N)=O)NC(=O)[C@H](CO)NC(=O)[C@H](CC(=O)O)NC(=O)[C@@H](CC(=O)O)NC(=O)[C@@H]2CCCN2C(=O)[C@H](Cc2ccccc2)NC1=O` [des3.5.1, SHA-dAla-Phe-Pro-dAsp-Asp-Ser-dAsn-Dab] (HELM PEPTIDE1{D.S.[dN].[Dab].[O=C([C@H](CCCCCS)N[*:1])[*:2]].[dA].F.P.[dD]}$PEPTIDE1,PEPTIDE1,1:R1-9:R2$$$V2.0), the IC50 at HDAC2 [1] (setting [5]) was above 1 µM.
Take `CCCC[C@H]1NC(=O)[C@@H](CCCCN)NC(=O)[C@H](CCCCCS)NC(=O)[C@@H](C)NC(=O)[C@H](CCCNC(=N)N)NC(=O)[C@@H]([C@H](C)O)NC(=O)[C@@H](CC(N)=O)NC(=O)[C@H](CCC(=O)O)NC1=O` [des1.2.0, SHA-dLys-dNle-Glu-dAsn-dThr-Arg-dAla] (HELM PEPTIDE1{E.[dN].[dT].R.[dA].[O=C([C@H](CCCCCS)N[*:1])[*:2]].[dK].[CCCC[C@@H](N[*:1])C(=O)[*:2]]}$PEPTIDE1,PEPTIDE1,1:R1-8:R2$$$V2.0): the IC50 on HDAC2 [1] (setting [3]) was 100 µM.
On to `C[C@H]1NC(=O)[C@H](CCCNC(=N)N)NC(=O)[C@@H](CC(N)=O)NC(=O)[C@@H](CC(N)=O)NC(=O)[C@H](CCC(=O)O)NC(=O)[C@@H](CC(=O)O)NC(=O)[C@@H](CC(N)=O)NC(=O)[C@H](CCCCCS)NC1=O` [des1.3.0, SHA-dAsn-dAsp-Glu-dAsn-dAsn-Arg-dAla] (HELM PEPTIDE1{E.[dN].[dN].R.[dA].[O=C([C@H](CCCCCS)N[*:1])[*:2]].[dN].[dD]}$PEPTIDE1,PEPTIDE1,1:R1-8:R2$$$V2.0), for which, on HDAC2 [1] (setting [5]), the IC50 is 1 µM.
Take `N=C(N)NCCC[C@@H]1NC(=O)[C@@H](CCCNC(=N)N)NC(=O)[C@H]2CCCN2C(=O)[C@@H](CO)NC(=O)[C@H](Cc2ccc(O)cc2)NC(=O)[C@H](CCCCCS)NC(=O)[C@H](CCc2ccccc2)NC(=O)[C@@H](CCC(N)=O)NC(=O)[C@H](CC(=O)O)NC1=O` [des3.3.2, SHA-Tyr-dSer-dPro-dArg-Arg-Asp-dGln-C27] (HELM PEPTIDE1{D.[dQ].[O=C([C@H](CCc1ccccc1)N[*:1])[*:2]].[O=C([C@H](CCCCCS)N[*:1])[*:2]].Y.[dS].[dP].[dR].R}$PEPTIDE1,PEPTIDE1,1:R1-9:R2$$$V2.0): the IC50 on HDAC2 [1] (setting [4]) was 0.057 µM; on HDAC2 [1] (setting [3]) it was 0.05 µM. In addition, the “2-Selectivity: fold potency” value at HDAC2 [2] was 3 fold.
Regarding `C[C@H]1NC(=O)[C@@H](Cc2c[nH]cn2)NC(=O)[C@H](CCCCCS)NC(=O)[C@H](Cc2c[nH]c3ccccc23)NC(=O)[C@@H](CCCNC(=N)N)NC(=O)[C@@H]2CCCN2C(=O)[C@@H](CC(N)=O)NC(=O)[C@@H](CC(N)=O)NC(=O)[C@H](Cc2ccc(O)cc2)NC1=O` [des3.6.0, SHA-dHis-dAla-Tyr-dAsn-dAsn-Pro-dArg-Trp] (HELM PEPTIDE1{P.[dR].W.[O=C([C@H](CCCCCS)N[*:1])[*:2]].[dH].[dA].Y.[dN].[dN]}$PEPTIDE1,PEPTIDE1,1:R1-9:R2$$$V2.0), on HDAC2 [1] (setting [5]), the IC50 was above 1 µM.
